From US12558345B2, “CHK1/2 inhibitors for use in the treatment of neuroblastomas and/or soft tissue sarcomas” (Eli Lilly and Company, priority 2015, dated 2026)
Counter-ions that a name gives are not always drawn.

What was measured:
[1] = system: CTG-0994 EWS patient-derived xenograft; experiment: Xenograft Tumor Model CTG-0994; format: in vivo, mouse; conditions: comparator day 25, p-value <0.001
Method: (§1) The efficacy of 5-(5-(2-(3-aminopropoxy)-6-methoxyphenyl)-1H-pyrazol-3-ylamino)pyrazine-2-carbonitrile methanesulfonic acid monohydrate is measurable in vivo in mouse models of neuroblastomas and human pediatric and adult sarcomas. 5-(5-(2-(3-Aminopropoxy)-6-methoxyphenyl)-1H-pyrazol-3-ylamino)pyrazine-2-carbonitrile methanesulfonic acid monohydrate (10 mg/kg) can be administered subcutaneously to nude mice bearing either cell-derived xenografts (CDX) or patient-derived xenografts (PDX) of human rhabdomyosarcoma, desmoplastic small round cell tumor (DSRCT), osteosarcoma, and Ewing's sarcoma using a 3 day on, 4 day off b.i.d. dosing schedule. Tumor volume and body weight can be measured two times per week. Tumor-specific parameters can be evaluated by immumohistochemistry. […]
(§2) For all “ST” models (encompassing RMS and LMS), patient-derived xenografts are established from viable human tumor tissue and are serially passaged in animals a limited number of times to maintain tumor heterogeneity. […] Tumor response is determined by tumor volume measurement performed twice per week during the course of treatment.

[2] = system: CTG-0242 OS patient-derived xenograft; experiment: Xenograft Tumor Model CTG-0242; format: in vivo, mouse; conditions: comparator day 28, p-value 0.012
Method: as §1, §2

[3] = system: ST162 patient-derived xenograft; experiment: Xenograft Tumor Model ST162; format: in vivo, mouse; conditions: ST162, LMS, comparator day 39, p-value <0.001
Method: For all “ST” models (encompassing RMS and LMS), patient-derived xenografts are established from viable human tumor tissue and are serially passaged in animals a limited number of times to maintain tumor heterogeneity. In subcutaneous models, athymic nude mice (Crl:NU(NCr)-Foxn1nu) or CB-17 SCID mice (CRL-CB17/Icr-Prkdcscid/IcrIcoCrl) are injected or implanted unilaterally into the flank with tumor fragments harvested from host animals, each implanted from a specific passage lot. For all studies, measure tumor growth and body weight twice per week beginning on the seventh day after implantation. When tumor size reaches 150-300 mm^3, randomize animals and group into groups of 4-7 animals. Prepare test compound in an appropriate vehicle (e.g. vehicle can be 20% Captisol® in sterile water) and administer subcutaneously for three consecutive days followed by a four day dosing holiday and repeat for a minimum of four weeks. Tumor response is determined by tumor volume measurement performed twice per week during the course of treatment.

HT-29 cells = experiment: ECtfs (Two-Fold Sensitization) Assay; format: cell-based
Method: An inhibitor of CHK1 can potentiate the anti-proliferative activity of gemcitabine (or other cytotoxics) through abrogation of the intra-S phase checkpoint, resulting in sustained and increased DNA damage. The capacity for continued tumor cell proliferation after DNA damage can be analyzed by determining the ability of cells to replicate their DNA. […] In this assay, cells are treated with gemcitabine, and then with the compound of Example 2. Following a recovery period, cells are assayed for the ability to incorporate radioactive thymidine into DNA during S phase. The ECtfs parameter is a measure of the concentration of a CHK1 inhibitor necessary to reduce by half the GI90 concentration of gemcitabine, measured in this assay in the absence of CHK1 inhibition. HT-29 cells (obtained from ATCC), are grown in RPMI 1640 plus (Gibco™) 10% (v/v) heat inactivated FBS. These cells are plated at 1.3×10^3 per well on Corning Costar 96-well tissue culture plates. After plating the cells, the tissue culture plates are held at room temperature for 45 minutes, before returning to 37° C. Plates are incubated for 24 hours prior to gemcitabine addition. Before gemcitabine addition, medium is removed from all wells and replaced with 150 μL per well of fresh RPMI medium. Gemcitabine stocks at 10 mM are prepared in PBS. Gemcitabine dilutions were prepared at 4× concentrations in RPMI medium and added to wells at 50 μL per well. The highest final concentration of gemcitabine used is 80 μM and dilutions proceed by four-fold steps. Two hours later, gemcitabine-containing medium is removed from the wells and replaced with 150 μL per well of fresh RPMI medium. […] The volume of addition is 50 μL. Compound dilutions proceed by two-fold steps, starting at 5000 nM. […] Twenty μL of this solution is added to each well, yielding 1 µCi/well of ^3H-thymidine. Cells are labeled for twenty-two hours. The medium containing ^3H-thymidine is thoroughly removed from the wells. The plates are then frozen at −20° C., for several hours. To harvest the DNA containing incorporated ^3H-thymidine, plates are thawed for several minutes, and then 120 μL per well of 0.1 N NaOH is added to each well. Each plate is then incubated at 37° C., with slow mixing on a rotator, for 10 minutes. DNA is harvested with a Filtermate 196 Harvester (PerkinElmer) and collected on 96-well Unifilter GF/C plates (PerkinElmer #6005174). The wells of the tissue culture plate on which cells had been labeled are washed with water (5×). The Unifilter plate membranes are washed with an additional 4.5 mL per well (3×1.0 mL and finally a 1.5 mL wash). The Unifi is sealed with a Backseal adhesive sheet (PerkinElmer), and the 50 μL/well of MicroScint-20 (Perkin Elmer) is added. Each plate is then sealed with a Topseal clear adhesive sheet (PerkinElmer). Plates are counted on a Topcount scintillation counter (PerkinElmer), at 1 minute per well. ^3H-thymidine counts per minute (cpm) are exported into Prism (GraphPad) for analysis and plotting. […] For plotting the data in Prism, the gemcitabine concentrations are transformed to log values, and dose-response curves are fit by non-linear regression. Neither top nor bottom fits are constrained. The ECtfs value is 0.3 nM.

Structure (SMILES)	% Regression [1] [%]	% T/C [2] [%]	% Regression [3] [%]	decrease of the EC50 of gemcitabine (HT-29 cells; HT29 cells, 3 nM of the compound of Example 2) [fold]	ECtfs value (HT-29 cells; HT-29 cells, concentration necessary to reduce by half the GI90 concentration of gemcitabine, 3H-thymidine incorporation) [nM]	effect on the proliferation of HT29 cells (HT-29 cells; compound alone, 3 nM)
COc1cccc(OCCCN)c1-c1cc(Nc2cnc(C#N)cn2)n[nH]1 [Example 5, 5-(5-(2-(3-Aminopropoxy)-6-methoxyphenyl)-1H-pyrazol-3-ylamino)pyrazine-2-carbonitrile methanesulfonic acid monohydrate]	−79	6	−93	–	–	–
COc1cccc(OCCCN)c1-c1cc(Nc2cnc(C#N)cn2)n[nH]1 [Example 2, 5-(5-(2-(3-Aminopropoxy)-6-methoxyphenyl)-1H-pyrazol-3-ylamino)pyrazine-2-carbonitrile dihydrogen chloride salt]	–	–	–	7	0.3	little effect
